Laboratory results as given in US11021541B2, “Method of inhibiting the gonadotropin-releasing hormone (GnRH) receptor by administering a GHR-106 monoclonal antibody” (Vancouver Biotech Ltd., priority 2018, dated 2021).
Read-outs that look alike come from different tables or passages of the source. Where a SMILES comes first, the peptide text is derived from it. [ ]: non-standard residue; d: D form. dPhe(4-Cl) = N[C@H](Cc1ccc(Cl)cc1)C(=O)O; d2Nal = N[C@H](Cc1ccc2ccccc2c1)C(=O)O; dCit = NC(=O)NCCC[C@@H](N)C(=O)O; d3Pal = N[C@H](Cc1cccnc1)C(=O)O

Assays:
[1] = cited from earlier work; for Estimated Half Life: estimated circulation half-life
[2] = tested on: GnRH receptors expressed on the surface of cultured cancer cells (OC-3-VGH); assay: Competitive binding assay on microwells coated with OC-3-VGH cancer cells; set-up: species or system human; details: for competition with mGHR106 binding to OC-3-VGH coated microwells: FIG. 1A, mGHR106 0.50 or 0.25 μg/ml; for competition with hGHR106 binding to OC-3-VGH coated microwells: FIG. 1B, peptides each at 1 μg/mL
Method: Competitive binding assays were carried out according to accepted protocols, e.g. as described in U.S. Pat. No. 8,361,793. […] The N1-29 oligopeptides are derived from the N-terminal extracellular domains of GnRH receptors from each species. The amino acid sequence of each of Hu-P, Mo-P and Mu-P are shown as SEQ ID NO:1, SEQ ID NO:2 and SEQ ID NO:3 respectively in FIG. 3.
The white bars and black bars in FIG. 1A represent the different concentrations of mGHR106 (0.50 μg/ml and 0.25 μg/ml, respectively) used in each assay. […] Goat anti-human IgG-ALP (alkaline phosphatase labeled) was used as the probe, with error bars for duplicate assays indicated.

[3] = tested on: OC-3-VGH, PC-3, A549 and MDA-MB-435 cancer cells; assay: TUNEL apoptosis assay of cultured and treated cancer cells; type: cell-based; details: co-incubation 24 to 72 hours, compared on a molar basis, FIGS. 2A and 2B
Method: In order to compare the anti-proliferative effects (or apoptosis) between mGHR106 or hGHR106 and antide on cancer cells, In Situ Cell Death Detection Kit, POD (Roche, Canada) was employed for detection and quantitation of apoptosis of cultured and treated cancer cells in vitro. Briefly cancer cells were cultured in RPMI-1640 medium at 37° C. in a CO2 (5%) incubator for 24 and/or 48 hours until all cancer cells are attached to microwells. Following removal of cell culture medium, fresh serum-free medium was added for an additional 3 hours incubation in a CO2 incubator.
After the serum-free starvation period, the cells were incubated in fresh medium containing 10% fetal calf serum, and hGHR106, mGHR106 or antide of known concentration was added for co-incubation of 24 to 72 hours. As the negative control, normal mouse IgG or normal human IgG of the same concentration was used for the same incubation period.
At the end of incubation, the attached cells were removed from tissue culture wells by appropriate cell detachment solution. Apoptosis of treated cancer cells was quantitatively determined by TUNEL assay with the instructions provided by Cell Death Detection Kit, POD (Roche, Canada). Percent increases of cells with apoptosis after treatments with any one of hGHR106, mGHR106 and antide were obtained by subtracting spontaneous apoptosis from the negative control. […]

OC-3-VGH cancer cells = assay: Comparative gene regulation study in cancer cells; type: cell-based, human; details: FIG. 4; upon ligand treatment of cancer cells
Source text: Comparative gene regulation upon administration of hGHR106 or the decapeptide GnRH analog antide was examined using conventional protocols, e.g. as described in U.S. Pat. No. 8,361,793. […] Expressions of a number of selected genes involved in the proliferation or survival of cancer cells were compared. The selected genes include: GnRH, GnRHR, P0, P1, P2, L37, and EGF, c-fos, P21 and cyclin D1. P0, P1, P2, and L37 are ribosomal proteins.

[4] = clinically used antibodies and GnRH decapeptide analogs

Row | Compound | Estimated Half Life [1, 4] | competition with mGHR106 binding to OC-3-VGH coated microwells [2] | competition with hGHR106 binding to OC-3-VGH coated microwells [2] | further results
1 | CC(=O)N[C@H](Cc1ccc2ccccc2c1)C(=O)N[C@H](Cc1ccc(Cl)cc1)C(=O)N[C@H](Cc1cccnc1)C(=O)N[C@@H](CO)C(=O)N[C@@H](Cc1ccc(O)cc1)C(=O)N[C@H](CCCNC(N)=O)C(=O)N[C@@H](CC(C)C)C(=O)N[C@@H](CCCNC(=N)N)C(=O)N1CCC[C@H]1C(=O)N[C@H](C)C(N)=O [Cetrorelix] (Ac-[d2Nal][dPhe(4-Cl)][d3Pal]SY[dCit]LRP[dA]-NH2) | 10 to 63 h |  |  | 
2 | Beracizumab | 480 h |  |  | 
3 | Gonadotropin-releasing hormone [Native GnRH] |  |  |  | Estimated Half Life ([1]; native GnRH): 0.033 to 0.067 h; half-life in human circulation ([1]; human circulation): 2 to 4 min
4 | Hu-P: N1-29 oligopeptide of N-terminal extracellular domain of human GnRH receptor, SEQ ID NO:1 (MANNASLEQDPNHCSAINNSIPLIQGKLPT; listed as Mus musculus) |  | compete | compete | 
5 | Luprorelin | 3 h |  |  | 
6 | Mo-P: N1-29 oligopeptide of N-terminal extracellular domain of monkey GnRH receptor, SEQ ID NO:2 (MANSALPEQNQNHCSVINNSIPLMQGNLPT; Pan troglodytes) |  | compete | compete | 
7 | Mu-P: N1-29 oligopeptide of N-terminal extracellular domain of mouse GnRH receptor, SEQ ID NO:3 (MANSASPEQNQNHCSAINNSIPLMQGNLPT; listed as Homo sapiens) |  | not | not | 
8 | Panitumumab | 180 h |  |  | 
9 | antide |  |  |  | induced apoptosis (percent increase of cells with apoptosis) [3]: very similar degrees of induced apoptosis; Cyclin D1 expression (OC-3-VGH cancer cells): downregulated; EGF expression (OC-3-VGH cancer cells): downregulated; GnRH expression (up-regulation) (OC-3-VGH cancer cells): 50%; expression of the GnRH receptor (GnRHR) (OC-3-VGH cancer cells): unchanged
